Test: xn = mol fraction of the nth substance listed
Conditions: 101.3 kPa, Liquid; for viscosity: Capillary tube (Ostwald / Ubbelohde) method

CC(O)C(C)O (configuration not stated) [2,3-butanediol] + O
Conditions	mass density, 318.15 K [kg/m3]	mass density, 328.15 K [kg/m3]	mass density, 338.15 K [kg/m3]	speed of sound, 318.15 K [m/s]	speed of sound, 328.15 K [m/s]	speed of sound, 338.15 K [m/s]	viscosity, 328.15 K [mPa·s]	viscosity, 338.15 K [mPa·s]
x2 = 0.0546	–	971.78	963.14	–	1397.7	1379	7.267	4.899
x2 = 0.1435	–	973.84	965.14	–	1413.9	1394.6	6.438	4.365
x2 = 0.2458	–	976.48	967.72	–	1431.2	1410.6	5.44	3.722
x2 = 0.3539	–	979.73	970.91	–	1456.9	1433.2	4.404	3.054
x2 = 0.4502	–	983.14	974.25	–	1482.2	1457.5	3.532	2.49
x2 = 0.4989	–	985.04	976.14	–	1494.1	1468.9	3.117	2.221
x2 = 0.5503	–	987.17	978.26	–	1508.7	1482.2	2.705	1.951
x2 = 0.6581	1004.28	991.86	982.97	1566	1537.6	1510.5	1.94	1.447
x2 = 0.7518	1007.26	995.6	986.9	1595.2	1567.1	1540	1.412	1.089
x2 = 0.8626	1007.49	997.57	989.57	1605.3	1596.6	1573.7	0.954	0.768
x2 = 0.9092	1005.07	996.39	988.99	1598.9	1594.5	1577.3	0.802	0.656
x2 = 0.9148	1004.61	996.11	988.8	1596.7	1592.9	1576	0.784	0.644
x2 = 0.9248	1003.67	995.52	988.39	1596.3	1590.3	1576.1	0.753	0.621
x2 = 0.9305	1003.07	995.13	988.1	1590.4	1585.9	1572.2	0.735	0.608
x2 = 0.935	1002.56	994.78	987.85	1583.1	1570.1	1559.7	0.721	0.598
x2 = 0.9452	1001.27	993.9	987.18	1580.2	1574.2	1564.6	0.689	0.573
x2 = 0.9542	999.96	992.98	986.46	1578.1	1573	1566.2	0.661	0.552
x2 = 0.9703	997.18	990.96	984.86	1571.6	1570.4	1566.1	0.607	0.513
x2 = 0.98	995.19	989.48	983.67	1558.5	1561.6	1561.3	0.574	0.49
x2 = 0.9903	992.79	987.67	982.18	1548.2	1553.7	1556.6	0.539	0.463
x2 = 0.9925	992.23	987.24	981.83	1544.5	1551.3	1555.4	0.531	0.458
x2 = 0.9951	991.55	986.72	981.4	1540	1548.3	1552.7	0.521	0.451

Source: the NIST ThermoML archive (doi:10.1021/je0340755)
